Assay results reported in patent publication EP2818472A1, “Imidazo[4,5-c]pyridine and pyrrolo[3,2-c]pyridine compounds as G-protein-coupled receptor kinase 5 (GRK5) modulators” (Max-Planck-Gesellschaft zur Förderung der Wissenschaften …, priority 2013, dated 2014).

Each molecule was assayed on beta-TC6 cells (assay: Insulin HTRF assay (relative activity Ar) in beta-TC6 cells). Details: Mus musculus, Beta-TC6, 4 h, insulin HTRF, supernatant of beta-TC6 cells, incubation with test compound at 37°C for 2, 3, 4h; read-out: Ar (relative activity).
Format: cell-based, mouse
Excerpt: For further screening of compounds derived from compounds described above for their ability to regulate insulin release an insulin HTRF® (Homogeneous Time-Resolved Fluorescence; Cisbio International, France) was used. This assay is based on two antibodies against insulin binding to different epitopes of insulin. One of these antibodies is coupled to Europium (Ab-Eu-Cryptate) and the other one to the fluorophore XL665 (Ab-XL665). If the insulin is secreted into the supernatant of cell culture, both antibodies can bind to insulin and come therefore into close proximity, which allows upon excitation that energy transfer between (FRET) the long-life fluorescent donor Europium (cryptate) and the acceptors XL665. FRET increases proportionally with insulin concentration.
The automated assay protocol is as follows: • On day 1, 15k beta-TC6 cells per well were seeded for 24 or 48 h in 50 µL complete medium. On day 2 or respective on day 3, the medium is removed and cells are washed with 60 µL 1xPBS and 20 µL induction buffer is added using BioTek washer. Subsequently, 10 µL Sunitininb (5 -µM f.c.) or the test compound in induction buffer; 0.5% f.c. DMSO (CyBi-well) is transferred to the cells. The cells are then incubated at 37°C for 2, 3, 4h.
First 10 µL supernatant is transferred from the cell plates in HTRF plates (CyBi-well). 10 µL of 0, 1, 2, and 4 ng/ml insulin standard controls in assay medium is used as a control. To each well 10 µL of combined 1:25 Ab-XL665 (Acc) and 1:20 Ab-Eu-Cryptate (WellMate) are added and incubated for 120 min at RT in the dark. Finally HTRF is measured on ViewLux ultra high throughput microplate imager (PerkinElmer).
The evaluation software DataFactoty derives relative activities Ar according to the following equation: Ar = (V-R(0%control))/(R(100%control) -R0%control)) × 100 [formula]
The activity of the compounds was classified according to their Ar (relative activity) into the following ranges: […]

Structure (SMILES)	Emax
COc1ccc(Nc2cc3[nH]c(-c4cccc(N)c4)cc3cn2)cn1 [Compound 1, 2-(3-aminophenyl)-N-(6-methoxy-3-pyridyl)-1H-pyrrolo[3,2-c]pyridin-6-amine]	50 to 100%
Nc1cccc(-c2cc3cnc(Nc4cccnc4)cc3[nH]2)c1 [Compound 2, 2-(3-aminophenyl)-N-(3-pyridyl)-1H-pyrrolo[3,2-c]pyridin-6-amine]	30 to 50%
CN1CCN(c2cc3[nH]c(-c4cccc(C(F)(F)F)c4)cc3cn2)CC1 [Compound 4, 6-(4-methylpiperazin-1-yl)-2-[3-(trifluoromethyl)phenyl]-1H-pyrrolo[3,2-c]pyridine]	30 to 50%
CS(=O)(=O)Nc1cccc(Nc2cc3[nH]c(-c4cccc(C(F)(F)F)c4)cc3cn2)c1 [Compound 5, N-[3-[[2-[3-(trifluoromethyl)phenyl]-1H-pyrrolo[3,2-c]pyridin-6-yl]amino]phenyl]methanesulfonamide]	0 to 30%
COc1ccc(Nc2cc3[nH]c(-c4cccc(F)c4)cc3cn2)cc1OC [Compound 7, N-(3,4-dimethoxyphenyl)-2-(3-fluorophenyl)-1H-pyrrolo[3,2-c]pyridin-6-amine]	50 to 100%
COc1ccc(Nc2cc3[nH]c(-c4cccc(F)c4)cc3cn2)cn1 [Compound 8, 2-(3-fluorophenyl)-N-(6-methoxy-3-pyridyl)-1H-pyrrolo[3,2-c]pyridin-6-amine]	30 to 50%
Fc1cccc(-c2cc3cnc(Nc4ccc(F)c(Cl)c4)cc3[nH]2)c1 [Compound 9, N-(3-chloro-4-fluoro-phenyl)-2-(3-fluorophenyl)-1H-pyrrolo[3,2-c]pyridin-6-amine]	0 to 30%
Oc1cccc(Nc2cc3[nH]c(-c4cccc(F)c4)cc3cn2)c1 [Compound 10, 3-[[2-(3-fluorophenyl)-1H-pyrrolo[3,2-c]pyridin-6-yl]amino]phenol]	50 to 100%
COc1ccc(Nc2cc3[nH]c(-c4cccc(F)c4)cc3cn2)cc1O [Compound 11, 5-[[2-(3-fluorophenyl)-1H-pyrrolo[3,2-c]pyridin-6-yl]amino]-2-methoxy-phenol]	30 to 50%
Fc1cccc(-c2cc3cnc(N4CCOCC4)cc3[nH]2)c1 [Compound 12, 4-[2-(3-fluorophenyl)-1H-pyrrolo[3,2-c]pyridin-6-yl]morpholine]	> 100%
CS(=O)(=O)Nc1cccc(Nc2cc3[nH]c(-c4cccc(F)c4)cc3cn2)c1 [Compound 13, N-[3-[[2-(3-fluorophenyl)-1H-pyrrolo[3,2-c]pyridin-6-yl]amino]phenyl]methanesulfonamide]	50 to 100%
CN(C)C(=O)c1ccc(Nc2cc3[nH]c(-c4cccc(F)c4)cc3cn2)cc1 [Compound 14, 4-[[2-(3-fluorophenyl)-1H-pyrrolo[3,2-c]pyridin-6-yl]amino]-N,N-dimethyl-benzamide]	30 to 50%
CC(=O)Nc1cccc(Nc2cc3[nH]c(-c4cccc(F)c4)cc3cn2)c1 [Compound 15, N-[3-[[2-(3-fluorophenyl)-1H-pyrrolo[3,2-c]pyridin-6-yl]amino]phenyl]acetamide]	30 to 50%
CS(=O)(=O)c1ccc(Nc2cc3[nH]c(-c4cccc(F)c4)cc3cn2)cc1 [Compound 16, 2-(3-fluorophenyl)-N-(4-methylsulfonylphenyl)-1H-pyrrolo[3,2-c]pyridin-6-amine]	30 to 50%
Cn1c(-c2cccc(F)c2)cc2cnc(Nc3ccc(O)cc3)cc21 [Compound 17, 4-[[2-(3-fluorophenyl)-1-methyl-pyrrolo[3,2-c]pyridin-6-yl]amino]phenol]	50 to 100%
COc1cc(Nc2cc3[nH]c(-c4ccc(C(=O)N(C)C)cc4)cc3cn2)cc(OC)c1OC [Compound 18, N,N-dimethyl-4-[6-(3,4,5-trimethoxyanilino)-1H-pyrrolo[3,2-c]pyridin-2-yl]benzamide]	50 to 100%
COc1cccc(Nc2cc3[nH]c(-c4ccc(C(=O)N(C)C)cc4)cc3cn2)c1 [Compound 19, 4-[6-(3-methoxyanilino)-1H-pyrrolo[3,2-c]pyridin-2-yl]-N,N-dimethyl-benzamide]	50 to 100%
COc1ccc(Nc2cc3[nH]c(-c4ccc(C(=O)N(C)C)cc4)cc3cn2)c(OC)c1 [Compound 20, 4-[6-(2,4-dimethoxyanilino)-1H-pyrrolo[3,2-c]pyridin-2-yl]-N,N-dimethyl-benzamide]	50 to 100%
COc1ccc(Nc2cc3[nH]c(-c4ccc(C(=O)N(C)C)cc4)cc3cn2)cc1OC [Compound 21, 4-[6-(3,4-dimethoxyanilino)-1H-pyrrolo[3,2-c]pyridin-2-yl]-N,N-dimethyl-benzamide]	50 to 100%
CN(C)C(=O)c1ccc(-c2cc3cnc(Nc4cccnc4)cc3[nH]2)cc1 [Compound 22, N,N-dimethyl-4-[6-(3-pyridylamino)-1H-pyrrolo[3,2-c]pyridin-2-yl]benzamide]	> 100%
CN(C)C(=O)c1ccc(-c2cc3cnc(Nc4cccc(Cl)c4)cc3[nH]2)cc1 [Compound 23, 4-[6-(3-chloroanilino)-1H-pyrrolo[3,2-c]pyridin-2-yl]-N,N-dimethyl-benzamide]	30 to 50%
CN(C)C(=O)c1ccc(-c2cc3cnc(Nc4ccccc4)cc3[nH]2)cc1 [Compound 24, 4-(6-anilino-1 H-pyrrolo[3,2-c]pyridin-2-yl)-N,N-dimethyl-benzamide]	50 to 100%
CN(C)C(=O)c1ccc(-c2cc3cnc(Nc4ccc(Oc5ccccc5)cc4)cc3[nH]2)cc1 [Compound 25, N,N-dimethyl-4-[6-(4-phenoxyanilino)-1H-pyrrolo[3,2-c]pyridin-2-yl]benzamide]	0 to 30%
CN1CCN(c2ccc(Nc3cc4[nH]c(-c5ccc(C(=O)N(C)C)cc5)cc4cn3)cc2)CC1 [Compound 26, N,N-dimethyl-4-[6-[4-(4-methylpiperazin-1-yl)anilino]-1H-pyrrolo[3,2-c]pyridin-2-yl]benzamide]	50 to 100%
CN(C)C(=O)c1ccc(-c2cc3cnc(Nc4cccc(N(C)C)c4)cc3[nH]2)cc1 [Compound 27, 4-[6-[3-(dimethylamino)anilino]-1H-pyrrolo[3,2-c]pyridin-2-yl]-N,N-dimethyl-benzamide]	50 to 100%
Cc1cccc(Nc2cc3[nH]c(-c4ccc(C(=O)N(C)C)cc4)cc3cn2)c1 [Compound 28, N,N-dimethyl-4-[6-(3-methylanilino)-1H-pyrrolo[3,2-c]pyridin-2-yl]benzamide]	50 to 100%
COC(=O)c1ccc(Nc2cc3[nH]c(-c4ccc(C(=O)N(C)C)cc4)cc3cn2)cc1 [Compound 29, methyl 4-[[2-[4-(dimethylcarbamoyl)phenyl]-1H-pyrrolo[3,2-c]pyridin-6-yl]amino]benzoate]	30 to 50%
CN(C)C(=O)c1ccc(-c2cc3cnc(Nc4cccc(S(C)(=O)=O)c4)cc3[nH]2)cc1 [Compound 30, N,N-dimethyl-4-[6-(3-methylsulfonylanilino)-1H-pyrrolo[3,2-c]pyridin-2-yl]benzamide]	50 to 100%
CN(C)C(=O)c1ccc(-c2cc3cnc(Nc4cccc(O)c4)cc3[nH]2)cc1 [Compound 31, 4-[6-(3-hydroxyanilino)-1H-pyrrolo[3,2-c]pyridin-2-yl]-N,N-dimethyl-benzamide]	> 100%
CN(C)C(=O)c1ccc(-c2cc3cnc(Nc4ccc(C(F)(F)F)cc4)cc3[nH]2)cc1 [Compound 32, N,N-dimethyl-4-[6-[4-(trifluoromethyl)anilino]-1H-pyrrolo[3,2-c]pyridin-2-yl]benzamide]	30 to 50%
